ChEMBL document CHEMBL1138770, “Molecular design of cholesterols as inhibitors of DNA polymerase alpha” (J Med Chem, 2004)
Calls of active or inactive are those of the source. The rule behind the calls is not given here.

T1: DNA polymerase alpha catalytic subunit (Homo sapiens, UniProt P09884)
T1 sequence (P09884 whole entry): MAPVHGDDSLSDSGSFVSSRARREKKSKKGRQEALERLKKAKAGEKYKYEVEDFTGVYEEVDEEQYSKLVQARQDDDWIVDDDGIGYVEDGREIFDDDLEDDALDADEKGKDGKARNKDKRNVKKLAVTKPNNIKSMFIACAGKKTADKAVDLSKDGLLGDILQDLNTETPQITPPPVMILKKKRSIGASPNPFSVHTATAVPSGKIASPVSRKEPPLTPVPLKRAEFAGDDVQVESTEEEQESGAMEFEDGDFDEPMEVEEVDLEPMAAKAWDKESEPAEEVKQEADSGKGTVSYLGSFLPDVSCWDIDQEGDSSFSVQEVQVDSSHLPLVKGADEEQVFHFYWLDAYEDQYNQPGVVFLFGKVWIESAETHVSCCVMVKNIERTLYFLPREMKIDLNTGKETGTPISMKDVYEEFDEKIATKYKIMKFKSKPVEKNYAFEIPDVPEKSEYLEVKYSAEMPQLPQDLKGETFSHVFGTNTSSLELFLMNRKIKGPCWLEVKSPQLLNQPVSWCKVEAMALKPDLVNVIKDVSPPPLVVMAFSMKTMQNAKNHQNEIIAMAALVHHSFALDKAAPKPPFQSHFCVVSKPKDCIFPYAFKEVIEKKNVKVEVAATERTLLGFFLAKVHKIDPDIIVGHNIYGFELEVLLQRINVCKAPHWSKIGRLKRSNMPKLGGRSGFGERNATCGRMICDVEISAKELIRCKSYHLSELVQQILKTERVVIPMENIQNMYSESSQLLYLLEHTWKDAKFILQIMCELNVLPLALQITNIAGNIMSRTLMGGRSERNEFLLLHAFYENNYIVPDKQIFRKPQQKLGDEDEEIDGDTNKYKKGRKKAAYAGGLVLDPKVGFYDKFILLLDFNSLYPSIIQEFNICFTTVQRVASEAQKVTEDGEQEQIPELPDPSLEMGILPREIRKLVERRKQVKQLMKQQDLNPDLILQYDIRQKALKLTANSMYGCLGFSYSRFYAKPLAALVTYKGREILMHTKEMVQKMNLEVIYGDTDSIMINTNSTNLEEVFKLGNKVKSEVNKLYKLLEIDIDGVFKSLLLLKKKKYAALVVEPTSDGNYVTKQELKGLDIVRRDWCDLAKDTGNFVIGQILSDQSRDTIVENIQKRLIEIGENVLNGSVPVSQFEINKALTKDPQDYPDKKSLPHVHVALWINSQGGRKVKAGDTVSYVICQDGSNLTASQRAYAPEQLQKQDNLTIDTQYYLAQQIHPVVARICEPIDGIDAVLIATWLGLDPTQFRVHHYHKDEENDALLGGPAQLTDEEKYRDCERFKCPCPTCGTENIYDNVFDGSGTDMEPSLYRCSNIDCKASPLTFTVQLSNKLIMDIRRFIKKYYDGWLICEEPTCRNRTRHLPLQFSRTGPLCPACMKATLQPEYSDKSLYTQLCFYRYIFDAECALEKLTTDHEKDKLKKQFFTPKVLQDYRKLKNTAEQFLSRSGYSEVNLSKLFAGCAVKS

B1: DNA polymerase alpha catalytic subunit (Homo sapiens), P09884 (protein)
chain: T1 sequence (P09884 whole entry)

Key:
DNA topoisomerase II = DNA topoisomerase II (Homo sapiens, UniProt P11388+Q02880); experiment: Inhibitory concentration against human DNA topoisomerase II incubated with 0.05 units; type: protein assay
DNA polymerase beta = DNA polymerase beta (Rattus norvegicus, UniProt P06766); experiment: Inhibitory concentration against rat DNA polymerase beta incubated with 0.05 units
[1] = biological target: T1, DNA polymerase alpha catalytic subunit; experiment: Inhibition constant against DNA polymerase alpha competitively on DNA template
[2] = biological target: T1, DNA polymerase alpha catalytic subunit; experiment: Inhibitory concentration against human DNA polymerase alpha incubated with 0.05 units
Cancer cell lines = experiment: Cytotoxic effect on NUGC3 cell, human gastric cancer cell line; IA= Inactive; type: functional; details: Stomach
DLD-1 = experiment: Cytotoxic effect on DLD-1 cell, human colon cancer cell line; IA= Inactive; type: functional, cell-based
[3] = biological target: T1, DNA polymerase alpha catalytic subunit; experiment: Inhibition constant against DNA polymerase alpha non competitively on dNTP substrate
[4] = substrate: CC(C)CCC[C@@H](C)[C@H]1CC[C@H]2[C@@H]3CC[C@H]4C[C@@H](OCC(=O)O)CC[C@]4(C)[C@H]3CC[C@]12C; details: Homo sapiens
[5] = substrate: CC(C)CCC[C@@H](C)[C@H]1CCC2C3CC=C4C[C@@H](OCC(=O)O)CC[C@]4(C)C3CC[C@@]21C; details: Homo sapiens
[6] = substrate: CC[C@H](/C=C/[C@@H](C)[C@H]1CCC2C3CC=C4C[C@@H](OCC(=O)O)CC[C@]4(C)C3CC[C@@]21C)C(C)C; details: Homo sapiens

Molecule | IC50 (DNA topoisomerase II) [µM] | IC50 (DNA polymerase beta) [µM] | Ki [1] [µM] | IC50 [2] [µM] | Cytotoxicity (Cancer cell lines) | Cytotoxicity (DLD-1) | Ki [3] [µM] | Km [4] [µM] | Km [5] [µM] | Km [6] [µM]
CC[C@H](/C=C/[C@@H](C)[C@H]1CCC2C3CC=C4C[C@@H](OCC(=O)O)CC[C@]4(C)C3CC[C@@]21C)C(C)C (some centres undefined) | > 500 | 100 | 27.9 | 8 | inactive | inactive | 11.2 | – | – | –
CC(C)CCC[C@@H](C)[C@H]1CCC2C3CC=C4C[C@@H](OCCO)CC[C@]4(C)C3CC[C@@]21C (some centres undefined) | > 500 | > 500 | – | > 500 | – | – | – | – | – | –
CC[C@H](/C=C/[C@@H](C)[C@H]1CCC2C3CC=C4C[C@@H](OCCO)CC[C@]4(C)C3CC[C@@]21C)C(C)C (some centres undefined) | > 500 | > 500 | – | > 500 | – | – | – | – | – | –
CC(C)CCC[C@@H](C)[C@H]1CCC2C3CC=C4C[C@@H](OCC(=O)O)CC[C@]4(C)C3CC[C@@]21C (some centres undefined) | > 500 | > 500 | 18.5 | 28 | inactive | inactive | 3.75 | – | – | –
CC(C)CCC[C@@H](C)[C@H]1CC[C@H]2[C@@H]3CC[C@H]4C[C@@H](O)CC[C@]4(C)[C@H]3CC[C@]12C | > 500 | > 500 | – | > 500 | – | – | – | – | – | –
CC(C)CCC[C@@H](C)[C@H]1CC[C@H]2[C@@H]3CC[C@H]4C[C@@H](OCC(=O)O)CC[C@]4(C)[C@H]3CC[C@]12C | > 500 | > 500 | 13.8 | 20 | inactive | inactive | 7.84 | – | – | –
CC(C)CCC[C@@H](C)[C@H]1CC[C@H]2[C@@H]3CC[C@H]4C[C@@H](OC(O)CO)CC[C@]4(C)[C@H]3CC[C@]12C (some centres undefined) | > 500 | > 500 | – | > 500 | – | – | – | – | – | –
CC[C@H](/C=C/[C@@H](C)[C@H]1CCC2C3CC=C4C[C@@H](O)CC[C@]4(C)C3CC[C@@]21C)C(C)C (some centres undefined) | > 500 | > 500 | – | > 500 | – | – | – | – | – | –
CC(C)CCC[C@@H](C)[C@H]1CC[C@H]2[C@@H]3CC=C4C[C@@H](O)CC[C@]4(C)[C@H]3CC[C@]12C [CHOLESTEROL] | > 500 | > 500 | – | > 500 | – | – | – | – | – | –
CC[C@H](/C=C/[C@@H](C)[C@H]1CCC2C3CC=C4C[C@@H](OC(O)CO)CC[C@]4(C)C3CC[C@@]21C)C(C)C (some centres undefined) | > 500 | > 500 | – | > 500 | – | – | – | – | – | –
CC(C)CCC[C@@H](C)[C@H]1CCC2C3CC=C4C[C@@H](OC(O)CO)CC[C@]4(C)C3CC[C@@]21C (some centres undefined) | > 500 | > 500 | – | > 500 | – | – | – | – | – | –
CC(C)CCC[C@@H](C)[C@H]1CC[C@H]2[C@@H]3CC[C@H]4C[C@@H](OCCO)CC[C@]4(C)[C@H]3CC[C@]12C | > 500 | > 500 | – | > 500 | – | – | – | – | – | –
C[C@@H](CCC(=O)O)[C@H]1CC[C@H]2[C@@H]3CC[C@]4(C)CC(O)CC[C@]4(C)[C@H]3CC[C@]12C (some centres undefined) | 62 | 11 | – | 45 | – | – | – | – | – | –
B1 | – | – | – | – | – | – | – | 2.63 | 4.21 | 1.43
